One compound from US11143585B2, “Photoelectrical device for concentration detection, method for concentration detection thereof and method for testing an antibiotic susceptibility on bacteria” (priority 2018, dated 2021) can be followed below.

In test [1] the test system is oxacillin-resistant Staphylococcus aureus (ORSA). As to the kind of experiment: Antibiotic effectiveness test with the photoelectrical device, fluid sample containing ORSA and oxacillin. Format: cell-based. How it is done: (§1) FIG. 3A is an electric current-voltage curve obtained by the photoelectrical device of the present invention for detecting an effectiveness of an antibiotic on bacteria. In the method for testing the effectiveness of an antibiotic on bacteria of the present invention, firstly, a fluid sample containing bacteria and an antibiotic is prepared, wherein the bacterial concentration of the fluid sample is between 10^4 and 10^5 CFU/ml. Use FIG. 3A as an example, the fluid sample to be detected contains an antibiotic: oxacillin, and bacteria: oxacillin-resistant Staphylococcus aureus (ORSA, hereinafter as ORSA for short). There is also another control sample used as a control group containing oxacillin and oxacillin-susceptible Staphylococcus aureus (OSSA, hereinafter as OSSA for short). In FIG. 3A, curve B3 is the background information and is drawn by detecting a sterile fluid sample. Curve OS31 is drawn by detecting the control sample containing OSSA and oxacillin, and curve OR31 is drawn by detecting a fluid sample containing ORSA and oxacillin.
Both the above fluid sample and the control sample are added with oxacillin of a concentration of about 4 μg/ml in the tryptic soy broth (TSB) to incubate OSSA and ORSA respectively, and both of them respectively contain OSSA and ORSA with a bacterial concentration of 6×10^4 CFU/ml. After preparing the above fluid sample and the control sample, the bacteria (ORSA) in the fluid sample and the bacteria (OSSA) in the control sample are incubated, wherein the time for incubating the bacteria can be more than 3 hours, for example, 4 hours. […]
(§2) FIG. 3B is a diagram illustrating the relationship between the change rate of electric current and the incubation time measured on the photoelectric device 100 after being incubated for different periods of time based on FIG. 3A, wherein the vertical axis represents the change rate of electric current and its definition is the same as the above mathematical formula (1), while the horizontal axis represents the incubation time (also referred to as incubation period). […]

In test [2] the test system is oxacillin-susceptible Staphylococcus aureus (OSSA). The test can be described thus: Antibiotic effectiveness test with the photoelectrical device, control sample containing OSSA and oxacillin. Format: cell-based. To be noted: oxacillin about 4 μg/ml in TSB, initial 6×10^4 CFU/ml. The method, then:
as §1, with “Curve OS31 is drawn by detecting the control sample containing OSSA and oxacillin, and curve OR31 is drawn by detecting a fluid sample containing ORSA and oxacillin.” left out
as §2

Structures are written as SMILES.

`Cc1onc(-c2ccccc2)c1C(=O)N[C@@H]1C(=O)N2[C@@H]1SC(C)(C)[C@@H]2C(=O)O` [oxacillin]: the “change rate of electric current of the ORSA fluid sample” value in test [1] (oxacillin about 4 μg/ml in TSB, initial 6×10^4 CFU/ml, after 4 hours of incubation time, FIG. 3B curve OR32) is “more than 10%”. For the same compound, the “inhibition of ORSA reproduction (conclusion from change rate of electric current)” value in test [1] (oxacillin about 4 μg/ml in TSB, initial 6×10^4 CFU/ml, increasing incubation time) is given as “not inhibited by oxacillin”. Moreover, the “difference between the change rates of electric current of the ORSA fluid sample and the OSSA control sample” value in test [1] (oxacillin about 4 μg/ml, after more than 3 hours of incubation period, FIG. 3B) is reported as at least 4%. Moreover, in test [2] (FIG. 3B curve OS32), the “change in the change rate of electric current of the OSSA sample as incubation time increases” value is reported as “no significant change”. Also, in test [2] (increasing incubation time), the “inhibition of OSSA reproduction (conclusion from change rate of electric current)” value is “inhibited by oxacillin and difficult to reproduce”.
